Assay results as given in PubChem BioAssay AID248 (DTP/NCI, 2004).
Toxic doses and inconclusive results are not listed. Peptide text beside a SMILES is read from it.

Tested on: L1210 leukemia ip in BDF1 mice, survival T/C
Test: NCI In Vivo Anticancer Drug Screen. Data for tumor model L1210 Leukemia (intraperitoneal) in B6D2F1 (BDF1) mice
Details: endpoint: mean survival time, higher = longer survival
Method in brief: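 Read-out is survival time, reported as the treated-group measurement over the vehicle-control measurement.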

[1] = dose: 75.0 mg/kg/injection, schedule: Q01DX009 (ip), vehicle: Klucel (hydroxypropylcellulose) (HPC)
[2] = dose: 100.0 mg/kg/injection, schedule: Q01DX001 (ip), vehicle: saline
[3] = dose: 200.0 mg/kg/injection, schedule: Q01DX001 (ip), vehicle: saline
[4] = dose: 400.0 mg/kg/injection, schedule: Q01DX001 (ip), vehicle: saline
[5] = dose: 100.0 mg/kg/injection, schedule: Q01DX009 (ip), vehicle: Klucel (hydroxypropylcellulose) (HPC)
[6] = dose: 100.0 mg/kg/injection, schedule: Q04DX003 (ip), vehicle: Klucel (hydroxypropylcellulose) (HPC)
[7] = dose: 50.0 mg/kg/injection, schedule: Q01DX001 (ip), vehicle: saline
[8] = dose: 200.0 mg/kg/injection, schedule: Q01DX009 (ip), vehicle: Klucel (hydroxypropylcellulose) (HPC)
[9] = dose: 400.0 mg/kg/injection, schedule: Q01DX009 (ip), vehicle: Klucel (hydroxypropylcellulose) (HPC)
[10] = dose: 200.0 mg/kg/injection, schedule: Q04DX003 (ip), vehicle: Klucel (hydroxypropylcellulose) (HPC)
[11] = dose: 400.0 mg/kg/injection, schedule: Q04DX003 (ip), vehicle: Klucel (hydroxypropylcellulose) (HPC)
[12] = dose: 100.0 mg/kg/injection, schedule: Q01DX001 (ip), vehicle: carboxymethylcellulose (CMC)
[13] = dose: 200.0 mg/kg/injection, schedule: Q01DX001 (ip), vehicle: carboxymethylcellulose (CMC)

CCC1NC(=O)C(NC(=O)c2ncccc2O)C(C)OC(=O)C(c2ccccc2)NC(=O)C2CC(=O)CCN2C(=O)C(Cc2ccccc2)N(C)C(=O)C2CCCN2C1=O (stereo not drawn) (tested in a mixture with another compound)
T/C (dose: 18.75 mg/kg/injection, schedule: Q01DX009 (ip), vehicle: Klucel (hydroxypropylcellulose) (HPC)): 91 % of control | T/C (dose: 37.5 mg/kg/injection, schedule: Q01DX009 (ip), vehicle: Klucel (hydroxypropylcellulose) (HPC)): 107 % of control | T/C [1]: 98 % of control

[O-]c1on[n+](-c2ccccc2)c1-c1ccccc1
T/C [1]: 93 % of control | T/C (dose: 75.0 mg/kg/injection, schedule: Q04DX003 (ip), vehicle: Klucel (hydroxypropylcellulose) (HPC)): 109 % of control | T/C (dose: 150.0 mg/kg/injection, schedule: Q01DX009 (ip), vehicle: Klucel (hydroxypropylcellulose) (HPC)): 97 % of control | T/C (dose: 150.0 mg/kg/injection, schedule: Q04DX003 (ip), vehicle: Klucel (hydroxypropylcellulose) (HPC)): 105 % of control | T/C (dose: 300.0 mg/kg/injection, schedule: Q01DX009 (ip), vehicle: Klucel (hydroxypropylcellulose) (HPC)): 95 % of control | T/C (dose: 300.0 mg/kg/injection, schedule: Q04DX003 (ip), vehicle: Klucel (hydroxypropylcellulose) (HPC)): 107 % of control

COC(=O)c1c([N+](=O)[O-])ncn1C1OC(COC(C)=O)C(OC(C)=O)C1OC(C)=O (stereo not drawn)
T/C [2]: 102 % of control | T/C [3]: 103 % of control | T/C [4]: 94 % of control

CCOC(=O)C1(N)CCCC1
T/C (dose: 15.0 mg/kg/injection, schedule: Q01DX Z (ip), vehicle: carboxymethylcellulose (CMC)): 105 % of control | T/C (dose: 23.0 mg/kg/injection, schedule: Q01DX Z (ip), vehicle: carboxymethylcellulose (CMC)): 108 % of control | T/C (dose: 31.3 mg/kg/injection, schedule: Q01DX015 (ip), vehicle: saline): 96 % of control | T/C (dose: 35.0 mg/kg/injection, schedule: Q01DX Z (ip), vehicle: carboxymethylcellulose (CMC)): 117 % of control | T/C (dose: 62.5 mg/kg/injection, schedule: Q01DX015 (ip), vehicle: saline): 124 % of control | T/C (dose: 83.0 mg/kg/injection, schedule: Q01DX Z (ip), vehicle: carboxymethylcellulose (CMC)): 122 % of control | T/C (dose: 125.0 mg/kg/injection, schedule: Q01DX015 (ip), vehicle: saline): 150 % of control | T/C (dose: 125.0 mg/kg/injection, schedule: Q01DX Z (ip), vehicle: carboxymethylcellulose (CMC)): 122 % of control | T/C (dose: 188.0 mg/kg/injection, schedule: Q01DX Z (ip), vehicle: carboxymethylcellulose (CMC)): 110 % of control | T/C (dose: 250.0 mg/kg/injection, schedule: Q01DX015 (ip), vehicle: saline): 157 % of control | T/C (dose: 500.0 mg/kg/injection, schedule: Q01DX015 (ip), vehicle: saline): 118 % of control

COc1ccc(CCNC(=S)NC(=O)c2ccccc2)cc1OC
T/C (dose: 100.0 mg/kg/injection, schedule: Q01DX009 (sc), vehicle: olive oil, sesame oil, peanut oil): 98 % of control | T/C (dose: 100.0 mg/kg/injection, schedule: Q04DX003 (sc), vehicle: olive oil, sesame oil, peanut oil): 100 % of control | T/C (dose: 200.0 mg/kg/injection, schedule: Q01DX009 (sc), vehicle: olive oil, sesame oil, peanut oil): 104 % of control | T/C (dose: 200.0 mg/kg/injection, schedule: Q04DX003 (sc), vehicle: olive oil, sesame oil, peanut oil): 98 % of control | T/C (dose: 400.0 mg/kg/injection, schedule: Q01DX009 (sc), vehicle: olive oil, sesame oil, peanut oil): 98 % of control | T/C (dose: 400.0 mg/kg/injection, schedule: Q04DX003 (sc), vehicle: olive oil, sesame oil, peanut oil): 103 % of control

CS(=O)c1cc2c(cc1[N+](=O)[O-])C(=O)c1ccccc1-2 (stereo not drawn)
T/C (dose: 20.0 mg/kg/injection, schedule: Q01DX009 (ip), vehicle: Klucel (hydroxypropylcellulose) (HPC)): 107 % of control | T/C (dose: 40.0 mg/kg/injection, schedule: Q01DX009 (ip), vehicle: Klucel (hydroxypropylcellulose) (HPC)): 117 % of control | T/C (dose: 50.0 mg/kg/injection, schedule: Q04DX003 (ip), vehicle: Klucel (hydroxypropylcellulose) (HPC)): 97 % of control | T/C [5]: 95 % of control | T/C [6]: 93 % of control

COc1ccc2c(c1)-c1c(ccc(OC)c1O)CC(c1ccccc1)[N+](C)(C)CC2 (stereo not drawn)
T/C (dose: 6.25 mg/kg/injection, schedule: Q01DX001 (ip), vehicle: saline): 96 % of control | T/C (dose: 12.5 mg/kg/injection, schedule: Q01DX001 (ip), vehicle: saline): 96 % of control | T/C (dose: 25.0 mg/kg/injection, schedule: Q01DX001 (ip), vehicle: saline): 107 % of control

O=c1cc(C2CCCCC2)c2ccccc2[nH]1
T/C (dose: 100.0 mg/kg/injection, schedule: Q04DX003 (ip), vehicle: gum acacia): 91 % of control | T/C (dose: 200.0 mg/kg/injection, schedule: Q04DX003 (ip), vehicle: gum acacia): 97 % of control | T/C (dose: 400.0 mg/kg/injection, schedule: Q04DX003 (ip), vehicle: gum acacia): 91 % of control

NC1=NC(c2ccccc2)N(c2ccccc2)C(N)=N1 (stereo not drawn)
T/C [7]: 99 % of control | T/C [2]: 104 % of control

O=[N+]([O-])c1cccc(/C=[N+](\[O-])c2ccccc2)c1
T/C [7]: 100 % of control | T/C [2]: 96 % of control | T/C [3]: 100 % of control | T/C [4]: 102 % of control

COc1cccc2c1OC1(N3CCOCC3)CCCCC1C2C[N+](=O)[O-] (stereo not drawn)
T/C [5]: 97 % of control | T/C [8]: 105 % of control | T/C [9]: 94 % of control

CCS(=O)(=O)/C=C/c1ccc(Cl)c(Cl)c1
T/C [6]: 110 % of control | T/C [10]: 97 % of control | T/C [11]: 107 % of control

O=S(=O)(c1ccccc1)C1CCCCC1Cl (stereo not drawn)
T/C [12]: 95 % of control | T/C [13]: 98 % of control | T/C (dose: 400.0 mg/kg/injection, schedule: Q01DX001 (ip), vehicle: carboxymethylcellulose (CMC)): 101 % of control

CS(=O)CC(=O)c1ccc(C(=O)O)cc1 (stereo not drawn)
T/C (dose: 100.0 mg/kg/injection, schedule: Q04DX003 (ip), vehicle: other): 107 % of control | T/C (dose: 200.0 mg/kg/injection, schedule: Q04DX003 (ip), vehicle: other): 98 % of control | T/C (dose: 400.0 mg/kg/injection, schedule: Q04DX003 (ip), vehicle: other): 101 % of control

CC1=[N+](CCS(C)(=O)=O)C(C)CCC1 (stereo not drawn)
T/C [7]: 115 % of control | T/C [2]: 110 % of control | T/C [3]: 106 % of control | T/C [4]: 106 % of control

CCC(NCC(C)C)NCC(C)C
T/C (dose: 12.5 mg/kg/injection, schedule: Q04DX003 (ip), vehicle: saline): 91 % of control | T/C (dose: 25.0 mg/kg/injection, schedule: Q04DX003 (ip), vehicle: saline): 105 % of control | T/C (dose: 50.0 mg/kg/injection, schedule: Q04DX003 (ip), vehicle: saline): 86 % of control

CC(C)C(NC(=O)C(CCC(=O)O)NC(=O)C(N)Cc1ccc(O)cc1)C(=O)NCC(=O)NC(Cc1ccc(O)cc1)C(=O)NC(CCC(=O)O)C(=O)NC(C(=O)NCC(=O)NCC(=O)O)C(C)C (stereo not drawn) (H-YEVGYEVGG-OH; configuration not given here)
T/C (dose: 50.0 mg/kg/injection, schedule: Q01DX001 (ip), vehicle: carboxymethylcellulose (CMC)): 91 % of control | T/C [12]: 96 % of control | T/C [13]: 91 % of control

Nc1ncc[nH]1
T/C (dose: 100.0 mg/kg/injection, schedule: Q01DX009 (ip), vehicle: saline): 107 % of control | T/C (dose: 100.0 mg/kg/injection, schedule: Q04DX002 (ip), vehicle: saline): 90 % of control | T/C (dose: 200.0 mg/kg/injection, schedule: Q01DX009 (ip), vehicle: saline): 114 % of control | T/C (dose: 200.0 mg/kg/injection, schedule: Q04DX002 (ip), vehicle: saline): 93 % of control | T/C (dose: 400.0 mg/kg/injection, schedule: Q01DX009 (ip), vehicle: saline): 122 % of control | T/C (dose: 400.0 mg/kg/injection, schedule: Q04DX002 (ip), vehicle: saline): 90 % of control

CN(C)CCNCC(=O)CC(O)(C(F)(F)F)C(F)(F)F
T/C (dose: 100.0 mg/kg/injection, schedule: Q01DX001 (ip), vehicle: Klucel (hydroxypropylcellulose) (HPC)): 96 % of control | T/C [6]: 108 % of control | T/C (dose: 200.0 mg/kg/injection, schedule: Q01DX001 (ip), vehicle: Klucel (hydroxypropylcellulose) (HPC)): 109 % of control | T/C [10]: 97 % of control | T/C (dose: 400.0 mg/kg/injection, schedule: Q01DX001 (ip), vehicle: Klucel (hydroxypropylcellulose) (HPC)): 104 % of control | T/C [11]: 113 % of control

O=C(Nc1cc2ccccc2cc1C(=O)O)Nc1cccc2ccccc12
T/C [5]: 97 % of control | T/C [8]: 101 % of control | T/C [9]: 100 % of control
